Reference: PMC5218480 (PLoS ONE, 2017)

Test system: MV-4-11 cells
Assay: Gene expression microarray analysis (Affymetrix PrimeView) and GSEA
Format: cell-based, human
Design: RFU PODN (11730768_x_at) / Fold change /veh PODN (11730768_x_at) / RFU LINC00158 (11744669_a_at) / Fold change /veh LINC00158 (11744669_a_at) / RFU DUSP10 (11751237_a_at) / Fold change /veh DUSP10 (11751237_a_at) / RFU ID3 (11757404_x_at) / Fold change /veh ID3 (11757404_x_at) / RFU PLEKHG5 (11737974_s_at) / Fold change /veh PLEKHG5 (11737974_s_at) / RFU LRRC4B (11730491_at) / Fold change /veh LRRC4B (11730491_at) / RFU GIMAP4 (11747438_a_at) / Fold change /veh GIMAP4 (11747438_a_at) / RFU KRT8 (11758183_x_at) / Fold change /veh KRT8 (11758183_x_at) / RFU CNN1 (11734310_a_at) / Fold change /veh CNN1 (11734310_a_at) / RFU VPS37D (11726825_at) / Fold change /veh VPS37D (11726825_at) / RFU C10orf10 (11716522_x_at) / Fold change /veh C10orf10 (11716522_x_at) / RFU KIR2DL2 /// KIR2DL4 /// KIR2DL5A /// KIR2DL5B /// KIR2DS1 /// KIR2DS2 /// KIR2DS3 /// KIR2DS4 /// KIR3DL3 /// KIR3DL3 /// KIR3DS1 (11738374_at) / Fold change /veh KIR2DL2 /// KIR2DL4 /// KIR2DL5A /// KIR2DL5B /// KIR2DS1 /// KIR2DS2 /// KIR2DS3 /// KIR2DS4 /// KIR3DL3 /// KIR3DL3 /// KIR3DS1 (11738374_at) / RFU C1QL1 (11718748_at) / Fold change /veh C1QL1 (11718748_at) / RFU TMPRSS4 (11747572_a_at) / Fold change /veh TMPRSS4 (11747572_a_at) / RFU HAMP (11756126_x_at) / Fold change /veh HAMP (11756126_x_at) / RFU RNFT2 (11725882_a_at) / Fold change /veh RNFT2 (11725882_a_at) / RFU NR4A2 (11747474_a_at) / Fold change /veh NR4A2 (11747474_a_at) / RFU ABCC12 (11746883_a_at) / Fold change /veh ABCC12 (11746883_a_at) / RFU TMEM136 (11760407_x_at) / Fold change /veh TMEM136 (11760407_x_at) / RFU CLDN22 /// WWC2 (11732394_at) / Fold change /veh CLDN22 /// WWC2 (11732394_at) / RFU HLA-DPB1 (11760878_x_at) / Fold change /veh HLA-DPB1 (11760878_x_at) / RFU SPINT1 (11716480_a_at) / Fold change /veh SPINT1 (11716480_a_at) / RFU GAP43 (11754022_s_at) / Fold change /veh GAP43 (11754022_s_at) / RFU A4GNT (11735810_at) / Fold change /veh A4GNT (11735810_at) / RFU PRB3 (11715151_x_at) / Fold change /veh PRB3 (11715151_x_at) / RFU TUBB4B (11761932_at) / Fold change /veh TUBB4B (11761932_at) / RFU CAPN14 (11732068_a_at) / Fold change /veh CAPN14 (11732068_a_at) / RFU TMCC2 (11721928_a_at) / Fold change /veh TMCC2 (11721928_a_at) / RFU IRGQ (11745062_a_at) / Fold change /veh IRGQ (11745062_a_at) / RFU FAM174B (11720279_a_at) / Fold change /veh FAM174B (11720279_a_at) / RFU TMPRSS4 (11748680_a_at) / Fold change /veh TMPRSS4 (11748680_a_at) / RFU FAM212B (11763350_a_at) / Fold change /veh FAM212B (11763350_a_at) / RFU PLEKHG5 (11743358_a_at) / Fold change /veh PLEKHG5 (11743358_a_at) / RFU ZSCAN30 (11745921_a_at) / Fold change /veh ZSCAN30 (11745921_a_at) / RFU CMKLR1 (11741424_a_at) / Fold change /veh CMKLR1 (11741424_a_at) / RFU LOC101060620 /// MAPK8IP1 (11723275_at) / Fold change /veh LOC101060620 /// MAPK8IP1 (11723275_at) / RFU SPTSSB (11747773_x_at) / Fold change /veh SPTSSB (11747773_x_at) / RFU PRSS12 (11739890_at) / Fold change /veh PRSS12 (11739890_at) / RFU BIN1 (11741810_x_at) / Fold change /veh BIN1 (11741810_x_at) / RFU WNT11 (11732464_a_at) / Fold change /veh WNT11 (11732464_a_at) / RFU C10orf10 (11716521_a_at) / Fold change /veh C10orf10 (11716521_a_at) / RFU C5orf56 (11738089_at) / Fold change /veh C5orf56 (11738089_at) / RFU CYB561 (11721691_x_at) / Fold change /veh CYB561 (11721691_x_at) / RFU ANKRD19P (11752326_a_at) / Fold change /veh ANKRD19P (11752326_a_at) / RFU OR2T12 /// OR2T33 /// OR2T8 (11738714_s_at) / Fold change /veh OR2T12 /// OR2T33 /// OR2T8 (11738714_s_at) / RFU VCAN (11748164_a_at) / Fold change /veh VCAN (11748164_a_at) / RFU JSRP1 (11732532_at) / Fold change /veh JSRP1 (11732532_at) / RFU KRTAP10-11 (11738290_x_at) / Fold change /veh KRTAP10-11 (11738290_x_at) / RFU MYO3A (11730013_a_at) / Fold change /veh MYO3A (11730013_a_at) / RFU EBF3 (11725865_a_at) / Fold change /veh EBF3 (11725865_a_at) / RFU CAMK2N1 (11719241_x_at) / Fold change /veh CAMK2N1 (11719241_x_at) / RFU C5orf56 (11738088_a_at) / Fold change /veh C5orf56 (11738088_a_at) / RFU OLFML3 (11715873_a_at) / Fold change /veh OLFML3 (11715873_a_at) / RFU LOC100653217 /// NTM (11731650_a_at) / Fold change /veh LOC100653217 /// NTM (11731650_a_at) / RFU MAPK11 (11762145_a_at) / Fold change /veh MAPK11 (11762145_a_at) / RFU FIZ1 (11724087_x_at) / Fold change /veh FIZ1 (11724087_x_at) / RFU OASL (11726364_x_at) / Fold change /veh OASL (11726364_x_at) / RFU SOX15 (11748057_x_at) / Fold change /veh SOX15 (11748057_x_at) / RFU CD79A (11719716_a_at) / Fold change /veh CD79A (11719716_a_at) / RFU HIST1H1D (11736915_at) / Fold change /veh HIST1H1D (11736915_at) / RFU CASKIN2 (11723855_a_at) / Fold change /veh CASKIN2 (11723855_a_at) / RFU LOC730098 (11760151_x_at) / Fold change /veh LOC730098 (11760151_x_at) / RFU OR4N2 (11742367_at) / Fold change /veh OR4N2 (11742367_at) / RFU PRRT2 (11749266_a_at) / Fold change /veh PRRT2 (11749266_a_at) / RFU SNX32 (11753110_a_at) / Fold change /veh SNX32 (11753110_a_at) / RFU CDHR5 (11726645_a_at) / Fold change /veh CDHR5 (11726645_a_at) / RFU RCAN1 (11760418_a_at) / Fold change /veh RCAN1 (11760418_a_at) / RFU FAM167A (11723789_a_at) / Fold change /veh FAM167A (11723789_a_at) / RFU FAM26E (11764081_at) / Fold change /veh FAM26E (11764081_at) / RFU ISYNA1 (11749810_s_at) / Fold change /veh ISYNA1 (11749810_s_at) / RFU ACY1 (11761880_at) / Fold change /veh ACY1 (11761880_at) / RFU 11764098_at / Fold change /veh 11764098_at / RFU SAMD14 (11745864_x_at) / Fold change /veh SAMD14 (11745864_x_at) / RFU NPB (11741838_a_at) / Fold change /veh NPB (11741838_a_at) / RFU TMPRSS6 (11731388_a_at) / Fold change /veh TMPRSS6 (11731388_a_at) / RFU KRTAP10-2 (11738614_at) / Fold change /veh KRTAP10-2 (11738614_at) / RFU ARHGAP8 /// PRR5-ARHGAP8 (11727945_x_at) / Fold change /veh ARHGAP8 /// PRR5-ARHGAP8 (11727945_x_at) / RFU KRTAP5-7 /// NADSYN1 (11734609_at) / Fold change /veh KRTAP5-7 /// NADSYN1 (11734609_at) / RFU RASL12 (11751679_a_at) / Fold change /veh RASL12 (11751679_a_at) / RFU CDKN2B (11736163_a_at) / Fold change /veh CDKN2B (11736163_a_at) / RFU PRF1 (11729649_at) / Fold change /veh PRF1 (11729649_at) / RFU, ZNF638 /// ZNF638-IT1 / Fold change vs veh, ZNF638 /// ZNF638-IT1 / RFU, PANK3 / Fold change vs veh, PANK3 / RFU, SH3YL1 / Fold change vs veh, SH3YL1 / RFU, ZEB2 / Fold change vs veh, ZEB2 / RFU, NRIP1 / Fold change vs veh, NRIP1 / RFU, PTTG1IP / Fold change vs veh, PTTG1IP / RFU, CAPN2 / Fold change vs veh, CAPN2 / RFU, MED14 / Fold change vs veh, MED14 / RFU, SNORA58 / Fold change vs veh, SNORA58 / RFU, C1orf63 / Fold change vs veh, C1orf63 / RFU, LRRFIP1 / Fold change vs veh, LRRFIP1 / RFU, NDUFAF7 / Fold change vs veh, NDUFAF7 / RFU, SLC12A2 / Fold change vs veh, SLC12A2 / RFU, IBTK / Fold change vs veh, IBTK / RFU, ESF1 / Fold change vs veh, ESF1 / Fold change vs veh, TMEM50B / RFU, TAOK1 / Fold change vs veh, TAOK1 / RFU, ACBD3 / Fold change vs veh, ACBD3 / RFU, TMA16 / Fold change vs veh, TMA16 / RFU, RWDD3 / Fold change vs veh, RWDD3 / RFU, BCAT1 / Fold change vs veh, BCAT1 / RFU, EDEM3 / Fold change vs veh, EDEM3 / RFU, TMEM33 / Fold change vs veh, TMEM33 / RFU, WDR75 / Fold change vs veh, WDR75 / RFU, AHCTF1 / Fold change vs veh, AHCTF1 / RFU, TFRC / Fold change vs veh, TFRC / RFU, ZDHHC17 / Fold change vs veh, ZDHHC17 / RFU, NOM1 / Fold change vs veh, NOM1 / RFU, ARL8B / Fold change vs veh, ARL8B / RFU, ZBTB11 / Fold change vs veh, ZBTB11 / RFU, TAMM41 / Fold change vs veh, TAMM41 / RFU, KIAA1704 /// LOC100996395 / Fold change vs veh, KIAA1704 /// LOC100996395 / RFU, ING1 / Fold change vs veh, ING1 / RFU, TRMT61B / Fold change vs veh, TRMT61B / RFU, FUBP3 / Fold change vs veh, FUBP3 / RFU, TP53 / Fold change vs veh, TP53 / RFU, TNKS2 / Fold change vs veh, TNKS2 / RFU, ZFP14 / Fold change vs veh, ZFP14 / RFU, ACTR2 / Fold change vs veh, ACTR2 / RFU, PPP3R1 / Fold change vs veh, PPP3R1 / RFU, PIK3R1 / Fold change vs veh, PIK3R1 / RFU, HNRNPA1 / Fold change vs veh, HNRNPA1 / RFU, RNF170 / Fold change vs veh, RNF170 / RFU, ZNF28 / Fold change vs veh, ZNF28 / RFU, RNGTT / Fold change vs veh, RNGTT / RFU, OGT / Fold change vs veh, OGT / RFU, BRD1 / Fold change vs veh, BRD1 / RFU, MARS / Fold change vs veh, MARS / RFU, ZNF655 / Fold change vs veh, ZNF655 / RFU, FAHD1 / Fold change vs veh, FAHD1 / RFU, BDP1 / Fold change vs veh, BDP1 / RFU, LRRCC1 / Fold change vs veh, LRRCC1 / RFU, ARID1A / Fold change vs veh, ARID1A / RFU, ZNF146 / Fold change vs veh, ZNF146 / RFU, ZNF330 / Fold change vs veh, ZNF330 / RFU, GPN3 / Fold change vs veh, GPN3 / RFU, C9orf123 / Fold change vs veh, C9orf123 / RFU, N4BP2L2 / Fold change vs veh, N4BP2L2 / RFU, ARFIP1 / Fold change vs veh, ARFIP1 / RFU, FAM179B / Fold change vs veh, FAM179B / RFU, BCL10 / Fold change vs veh, BCL10 / RFU, UHRF1BP1L / Fold change vs veh, UHRF1BP1L / RFU, BET1 / Fold change vs veh, BET1 / RFU, CNOT2 / Fold change vs veh, CNOT2 / RFU, ZNF268 / Fold change vs veh, ZNF268 / Fold change vs veh, ZNF507 / RFU, DGCR2 / Fold change vs veh, DGCR2 / RFU, WDSUB1 / Fold change vs veh, WDSUB1 / Fold change vs veh, HSP90B1 /// MIR3652 / RFU, ADSS / Fold change vs veh, ADSS / RFU, GK / Fold change vs veh, GK / RFU, ZNF148 / Fold change vs veh, ZNF148 / RFU, TAF9 / Fold change vs veh, TAF9 / RFU, SLC1A5 / Fold change vs veh, SLC1A5 / RFU, SLMO2 / Fold change vs veh, SLMO2 / RFU, ABCC4 / Fold change vs veh, ABCC4 / RFU, LOC101060439 /// RAP1B / Fold change vs veh, LOC101060439 /// RAP1B / RFU, RFX7 / Fold change vs veh, RFX7 / RFU, GTPBP10 / Fold change vs veh, GTPBP10 / RFU, CNEP1R1 / Fold change vs veh, CNEP1R1 / RFU, BIVM-ERCC5 /// ERCC5 / Fold change vs veh, BIVM-ERCC5 /// ERCC5 / RFU, ILF3 / Fold change vs veh, ILF3 / RFU 11762660_at / Fold change /veh 11762660_at / RFU VCAN (11757783_s_at) / Fold change /veh VCAN (11757783_s_at) / RFU DDX43 (11728927_at) / Fold change /veh DDX43 (11728927_at) / RFU KRT8 (11758188_x_at) / Fold change /veh KRT8 (11758188_x_at) / RFU NKD1 (11759106_at) / Fold change /veh NKD1 (11759106_at) / RFU SRD5A1 (11742802_a_at) / Fold change /veh SRD5A1 (11742802_a_at) / RFU TPSAB1 /// TPSB2 (11721975_s_at) / Fold change /veh TPSAB1 /// TPSB2 (11721975_s_at) / RFU GSTM3 (11746129_a_at) / Fold change /veh GSTM3 (11746129_a_at) / RFU IL23R (11737362_x_at) / Fold change /veh IL23R (11737362_x_at) / RFU TMEM51 (11727254_a_at) / Fold change /veh TMEM51 (11727254_a_at) / RFU PIWIL2 (11732686_x_at) / Fold change /veh PIWIL2 (11732686_x_at) / RFU ORM1 (11744905_x_at) / Fold change /veh ORM1 (11744905_x_at) / RFU CCDC152 (11743942_at) / Fold change /veh CCDC152 (11743942_at) / RFU ECM1 (11717891_a_at) / Fold change /veh ECM1 (11717891_a_at) / RFU IL23R (11748794_a_at) / Fold change /veh IL23R (11748794_a_at) / RFU TNFAIP8L3 (11732012_x_at) / Fold change /veh TNFAIP8L3 (11732012_x_at) / RFU MBOAT4 (11741988_at) / Fold change /veh MBOAT4 (11741988_at) / RFU 11764193_at / Fold change /veh 11764193_at / RFU TMEM53 (11763286_at) / Fold change /veh TMEM53 (11763286_at) / RFU MAGEB2 (11727129_at) / Fold change /veh MAGEB2 (11727129_at) / RFU TMEM200A (11744735_a_at) / Fold change /veh TMEM200A (11744735_a_at) / RFU CCDC152 (11751479_a_at) / Fold change /veh CCDC152 (11751479_a_at) / RFU FAM211A (11726209_a_at) / Fold change /veh FAM211A (11726209_a_at) / RFU RGS16 (11746705_a_at) / Fold change /veh RGS16 (11746705_a_at) / RFU VCAN (11755009_s_at) / Fold change /veh VCAN (11755009_s_at) / RFU RHOB (11743442_s_at) / Fold change /veh RHOB (11743442_s_at) / RFU RGS16 (11720943_a_at) / Fold change /veh RGS16 (11720943_a_at) / RFU RGS16 (11720944_at) / Fold change /veh RGS16 (11720944_at) / RFU, VPS4B / Fold change vs veh, VPS4B / RFU, CREB1 / Fold change vs veh, CREB1 / RFU, DNAJC13 / Fold change vs veh, DNAJC13 / RFU, GNAQ / Fold change vs veh, GNAQ / RFU, CDK5R1 / Fold change vs veh, CDK5R1 / RFU, ZRANB3 / Fold change vs veh, ZRANB3 / RFU, CUL4A / Fold change vs veh, CUL4A / RFU, CCNY / Fold change vs veh, CCNY / RFU, UFL1 / Fold change vs veh, UFL1 / RFU, COG3 / Fold change vs veh, COG3 / RFU, DIAPH2 / Fold change vs veh, DIAPH2 / RFU, SKA2 / Fold change vs veh, SKA2 / RFU, AFF3 / Fold change vs veh, AFF3 / RFU, LMF1 / Fold change vs veh, LMF1 / RFU, IPO11 / Fold change vs veh, IPO11 / RFU, DFFB / Fold change vs veh, DFFB / RFU, FOXP1 / Fold change vs veh, FOXP1 / RFU, CARD8 / Fold change vs veh, CARD8 / RFU, STRN3 / Fold change vs veh, STRN3 / RFU, ADK / Fold change vs veh, ADK / RFU, RASSF2 / Fold change vs veh, RASSF2 / RFU, WIPF1 / Fold change vs veh, WIPF1 / RFU, LARP1B / Fold change vs veh, LARP1B / RFU, RASA1 / Fold change vs veh, RASA1 / RFU, RB1 / Fold change vs veh, RB1 / RFU, PPFIA1 / Fold change vs veh, PPFIA1 / RFU, MAT2A / Fold change vs veh, MAT2A / RFU, CCT5 / Fold change vs veh, CCT5 / RFU, WDR92 / Fold change vs veh, WDR92 / RFU, CUX1 / Fold change vs veh, CUX1 / RFU, TTC7A / Fold change vs veh, TTC7A / RFU, TMEM135 / Fold change vs veh, TMEM135 / RFU, DEPTOR / Fold change vs veh, DEPTOR / RFU, CPM / Fold change vs veh, CPM / RFU, DNAJB6 / Fold change vs veh, DNAJB6 / RFU, CACNA2D3 / Fold change vs veh, CACNA2D3 / RFU, DTX4 / Fold change vs veh, DTX4 / RFU, TFCP2 / Fold change vs veh, TFCP2 / RFU, GMCL1 /// GMCL1P1 / Fold change vs veh, GMCL1 /// GMCL1P1 / RFU, AEBP2 / Fold change vs veh, AEBP2 / RFU, SNHG1 /// SNORD22 /// SNORD25 /// SNORD26 /// SNORD27 /// SNORD28 /// SNORD29 /// SNORD31 / Fold change vs veh, SNHG1 /// SNORD22 /// SNORD25 /// SNORD26 /// SNORD27 /// SNORD28 /// SNORD29 /// SNORD31 / Fold change (Aza/veh), C12orf56 (ProbeSet 11735607_a_at) / Fold change (ACY-1035/veh), C12orf56 (ProbeSet 11735607_a_at) / Fold change (Aza/veh), FGFR1OP (ProbeSet 11751329_s_at) / Fold change (ACY-1035/veh), FGFR1OP (ProbeSet 11751329_s_at) / Fold change (Aza/veh), VPS36 (ProbeSet 11739960_a_at) / Fold change (ACY-1035/veh), VPS36 (ProbeSet 11739960_a_at) / RFU SYPL1 (11715823_x_at) / Fold change /veh SYPL1 (11715823_x_at) / RFU IGFBP7 (11715501_s_at) / Fold change /veh IGFBP7 (11715501_s_at) / RFU REEP3 (11722064_at) / Fold change /veh REEP3 (11722064_at) / RFU IGLL1 (11728026_x_at) / Fold change /veh IGLL1 (11728026_x_at): dose or concentration left out as unconfirmed
Settings: ProbeSet 11753055_s_at; LIST B

## Nc1ccc(-c2cccs2)cc1NC(=O)c1ccc2c(c1)cc(C1CC1)n2CCN1CCOCC1 [ACY-1035]
  Fold change vs veh, LOC101060439 /// RAP1B: 0.99
